Assay results: US6060451A, “Thrombin inhibitors based on the amino acid sequence of hirudin” (The National Research Council of Canada, priority 1995, dated 2000)
Where a name gives a salt, the structure may show the parent alone. Read-outs that look alike come from different tables or passages of the source. Starred links: 1 amine or outer side, 2 acyl side, 3 side chain; linkers in the order of their positions; H or OH if unused. Non-standard residues stand in square brackets, D forms with d. Residues, ends and D or L forms follow the SMILES beside them. Argψ(COCH2)Gly = N=C(N)NCCC[C@H](N[*:1])C(=O)CCC(=O)[*:2]; X1 = N=C(N)NCCC[C@H](N[*:1])C(=O)CCCCC(=O)[*:2]; Cha = N[C@@H](CC1CCCCC1)C(=O)O; dCha = N[C@H](CC1CCCCC1)C(=O)O; Ava = NCCCCC(=O)O

Experiments:
human α-thrombin = human α-thrombin (Homo sapiens, UniProt P00734); test: Fluorogenic amidolytic assay of thrombin activity, hydrolysis of Tosyl-Gly-Pro-Arg-AMC (Table I)
thrombin [1] = molecular target: T1, thrombin (Homo sapiens, UniProt P00734); test: Antithrombin activity in vitro, Ki (Table III); type: biochemical; details: first test where two are given; means for 3-5 observations
Experimental: The reactions were initiated by addition of the substrate dissolved in 0.1 M Tris-HCl buffer, pH 7.8 to a preincubated solution of enzyme (0.4 or 0.04 nM) and variable concentrations of inhibitor dissolved in the same buffer. Initial velocities were recorded and Ki values were determined graphically by weighted linear regression of Dixon plots in the case of competitive inhibition, or by the method of Baici (Baici, 1981) for hyperbolic inhibition. Fluorogenic assays were conducted using the same conditions and instrument as above operating in the fluorescence mode in the Ratio (λex=383 nm, λem=455 nm). Fluorescence intensities were calibrated with 7-amino-4-methyl coumarin solution of known concentration. The specificity of the synthetic peptides of the present invention for human α-thrombin may also be determined by comparing their relative inhibitory activities towards both human α-thrombin and bovine α-thrombin and trypsin by comparing Ki values obtained in the amidolytic assay of thrombin activity.

human plasma clotting = test: Human plasma clotting time; type: biochemical; details: read-out: IC50 plasma clotting time (concentration required to inhibit human plasma clotting time by 50%)
Experimental: Thus, for the determination of prothrombin time, 50 μl of reconstituted citrated normal human plasma (Sigma, St-Louis, Mo.) is mixed with 50 μl of thromboplastin solution at 37° C. in a 400 μl cuvette. […] The clotting time is recorded following recalcification with 100 μl of 25 mM CaCl2. The clotting time in the absence of inhibitor was between 19-22 sec.
The same procedure is adopted for the determination of activated partial thromboplastin time except that reconstituted plasma is activated for 3 minutes with cephalin (Sigma, St-Louis, Mo.).
**Concentration of compound required to inhibit human plasma clotting tim

thrombin [2] = molecular target: T1, thrombin; test: Thrombin time in buffer containing fibrinogen (dTT); type: biochemical; details: read-out: IC50 dTT (concentration required to double thrombin time)
From the text: *Concentration of compound required to double thrombin time in buffer

| Ki (human α-thrombin; read-out: Human Ki, human α-thrombin mediated hydrolysis of Tosyl-Gly-Pro-Arg-AMC, mean of three determinations ± SEM, ni = not inhibited) [nM] | Compound | Ki (human α-thrombin) [nM] | Ki (thrombin [1]) [nM] | IC50 (human plasma clotting) [nM] | IC50 (thrombin [2]) [nM] |
| --- | --- | --- | --- | --- | --- |
| – | CC[C@H](C)[C@H](NC(=O)[C@H](CCC(=O)O)NC(=O)[C@H](CCC(=O)O)NC(=O)[C@H](Cc1ccccc1)NC(=O)[C@H](CC(=O)O)NC(=O)CNC(=O)[C@H](CC(=O)O)NC(=O)[C@H](CC(N)=O)NC(=O)[C@H](Cc1c[nH]cn1)NC(=O)[C@H](CO)NC(=O)[C@H](CCC(N)=O)NC(=O)CCCCC(=O)[C@H](CCCNC(=N)N)NC(=O)[C@@H]1CCCN1C(=O)[C@@H](Cc1ccccc1)NC(C)=O)C(=O)N1CCC[C@H]1C(=O)N[C@@H](CCC(=O)O)C(=O)N[C@@H](CCC(=O)O)C(=O)N[C@@H](Cc1ccc(O)cc1)C(=O)N[C@@H](CC(C)C)C(=O)N[C@@H](CCC(N)=O)C(=O)O [P103] | 0.14 ± 0.02 | – | – | – |
| – | Ac(D-Phe)-thioPro-Arg-(CH2)2 (CO)-QSHNDGDFEEIPEEYLQ-OH [P290] | – | 0.9 | 11 | – |
| – | CC[C@H](C)[C@H](NC(=O)[C@H](CCC(=O)O)NC(=O)[C@H](CCC(=O)O)NC(=O)[C@H](Cc1ccccc1)NC(=O)[C@H](CC(=O)O)NC(=O)CNC(=O)[C@H](CC(=O)O)NC(=O)[C@H](CC(N)=O)NC(=O)[C@H](Cc1c[nH]cn1)NC(=O)[C@H](CO)NC(=O)CNC(=O)CC(=O)[C@H](CCCNC(=N)N)NC(=O)[C@@H]1CCCN1C(=O)[C@@H](Cc1ccccc1)NC(C)=O)C(=O)N1CCC[C@H]1C(=O)N[C@@H](CCC(=O)O)C(=O)N[C@@H](CCC(=O)O)C(=O)N[C@@H](Cc1ccc(O)cc1)C(=O)N[C@@H](CC(C)C)C(=O)N[C@@H](CCC(N)=O)C(=O)O [P109] | – | 2.25 | – | – |
| – | CC[C@H](C)[C@H](NC(=O)[C@@H]1CCCN1C(=O)[C@H](CCC(=O)O)NC(=O)[C@H](Cc1ccccc1)NC(=O)[C@H](CC(=O)O)NC(=O)CNC(=O)[C@H](CC(=O)O)NC(=O)[C@H](CC(N)=O)NC(=O)[C@H](Cc1c[nH]cn1)NC(=O)[C@H](CO)NC(=O)[C@H](CCC(N)=O)NC(=O)CCC(=O)[C@H](CCCNC(=N)N)NC(=O)[C@@H]1CCCN1C(=O)[C@@H](CC1CCCCC1)NC(C)=O)C(=O)N1CCC[C@H]1C(=O)N[C@@H](CCC(=O)O)C(=O)N[C@@H](CCC(=O)O)C(=O)N[C@@H](Cc1ccc(O)cc1)C(=O)N[C@@H](CC1CCCCC1)C(=O)N[C@@H](CCC(N)=O)C(=O)O [P314] (Ac-[dCha]P[Argψ(COCH2)Gly]QSHNDGDFEPIPEEY[Cha]Q-OH) | – | 0.02 | – | 1.3 |
| – | CC[C@H](C)[C@H](NC(=O)[C@@H]1CCCN1C(=O)[C@H](CCC(=O)O)NC(=O)[C@H](Cc1ccccc1)NC(=O)[C@H](CC(=O)O)NC(=O)CCCCNC(=O)CCCCNC(=O)CCCCC(=O)[C@H](CCCNC(=N)N)NC(=O)[C@@H]1CCCN1C(=O)[C@@H](Cc1ccccc1)NC(C)=O)C(=O)N1CCC[C@H]1C(=O)N[C@@H](CC(C)C)C(=O)O [BCH-2739, Ac(D-Phe)-Pro-Arg-(CH2)4 (CO)--[NH(CH2)4 (CO)]2 -DFEPIPL-OH] (Ac-[dF]P[X1][Ava][Ava]DFEPIPL-OH) | – | 4 | – | 14.5 |
| – | CC[C@H](C)[C@H](NC(=O)[C@@H]1CCCN1C(=O)[C@H](CCC(=O)O)NC(=O)[C@H](Cc1ccccc1)NC(=O)CCCCNC(=O)CCCCNC(=O)CCCCC(=O)[C@H](CCCNC(=N)N)NC(=O)[C@@H]1CCCN1C(=O)[C@H](N)Cc1ccccc1)C(=O)N1CCC[C@H]1C(=O)N[C@@H](CC(C)C)C(=O)O [BCH-2767, (D-Phe)-Pro-Arg-(CH2)4 (CO)--[NH(CH2)4 CO]2 -FEPIPL-TFA salt] (H-[dF]P[X1][Ava][Ava]FEPIPL-OH) | – | 40 | – | 165 |
| – | CC[C@H](C)[C@H](NC(=O)[C@H](CCC(=O)O)NC(=O)[C@H](CCC(=O)O)NC(=O)[C@H](Cc1ccccc1)NC(=O)[C@H](CC(=O)O)NC(=O)CNC(=O)[C@H](CC(=O)O)NC(=O)[C@H](CC(N)=O)NC(=O)[C@H](Cc1c[nH]cn1)NC(=O)[C@H](CO)NC(=O)[C@H](CCC(N)=O)NC(=O)CCC(=O)[C@H](CCCNC(=N)N)NC(=O)[C@@H]1CCCN1C(=O)[C@@H](CC1CCCCC1)NC(C)=O)C(=O)N1CCC[C@H]1C(=O)N[C@@H](CCC(=O)O)C(=O)N[C@@H](CCC(=O)O)C(=O)N[C@@H](Cc1ccc(O)cc1)C(=O)N[C@@H](CC(C)C)C(=O)N[C@@H](CCC(N)=O)C(=O)O [P311] | – | 0.16 | – | 1.35 |
| 41 ± 15 | [D-Phe^45, Ala^47 ]hirudin^45-65 [P73] | – | – | – | – |
| – | Ac(D-Phe)-Pro-Arg-(CH2)4 (CO)-[NH--CH2 --CH=CH--CH2 --(CO)]2 -DEFPIPY-OH ({Ac-dF-Pro-Arg-(CH2)4CO-NHCH2CH:CHCH2CO-NHCH2CH:CHCH2CO}-DEFPIPY-OH; also: Arg carbonyl bonded to (CH2)4 (non-amide backbone link)) [BCH-2414] | – | 1 | 10.5 | 6.23 |
| – | CC[C@H](C)[C@H](NC(=O)[C@@H]1CCCN1C(=O)[C@H](CCC(=O)O)NC(=O)[C@H](Cc1ccccc1)NC(=O)[C@H](CC(=O)O)NC(=O)CNC(=O)[C@H](CC(=O)O)NC(=O)[C@H](CC(N)=O)NC(=O)[C@H](Cc1c[nH]cn1)NC(=O)[C@H](CO)NC(=O)[C@H](CCC(N)=O)NC(=O)CCC(=O)[C@H](CCCNC(=N)N)NC(=O)[C@@H]1CCCN1C(=O)[C@@H](Cc1ccccc1)NC(C)=O)C(=O)N1CCC[C@H]1C(=O)N[C@@H](CCC(=O)O)C(=O)N[C@@H](CCC(=O)O)C(=O)N[C@@H](Cc1ccc(O)cc1)C(=O)N[C@@H](CC1CCCCC1)C(=O)N[C@@H](CCC(N)=O)C(=O)O [BCH-2408] (Ac-[dF]P[Argψ(COCH2)Gly]QSHNDGDFEPIPEEY[Cha]Q-OH) | – | 0.075 | – | 1 |
| – | CC[C@H](C)[C@H](NC(=O)[C@H](CCC(=O)O)NC(=O)[C@H](CCC(=O)O)NC(=O)[C@H](Cc1ccccc1)NC(=O)[C@H](CC(=O)O)NC(=O)CNC(=O)[C@H](CC(=O)O)NC(=O)[C@H](CC(N)=O)NC(=O)[C@H](Cc1c[nH]cn1)NC(=O)[C@H](CO)NC(=O)[C@H](CCC(N)=O)NC(=O)CCCC(=O)[C@H](CCCNC(=N)N)NC(=O)[C@@H]1CCCN1C(=O)[C@@H](Cc1ccccc1)NC(C)=O)C(=O)N1CCC[C@H]1C(=O)N[C@@H](CCC(=O)O)C(=O)N[C@@H](CCC(=O)O)C(=O)N[C@@H](Cc1ccc(O)cc1)C(=O)N[C@@H](CC(C)C)C(=O)N[C@@H](CCC(N)=O)C(=O)O [P102] | 0.56 | – | – | – |
| – | CC[C@H](C)[C@H](NC(=O)[C@@H]1CCCN1C(=O)[C@H](CCC(=O)O)NC(=O)[C@H](Cc1ccccc1)NC(=O)[C@H](CC(=O)O)NC(=O)CCCCNC(=O)CCCCNC(=O)CCCCC(=O)[C@H](CCCNC(=N)N)NC(=O)[C@@H]1CCCN1C(=O)[C@H](N)Cc1ccccc1)C(=O)N1CCC[C@H]1C(=O)N[C@@H](CC(C)C)C(=O)O [BCH-2763, (D-Phe)-Pro-Arg-(CH2)4 (CO)--[NH(CH2)4 CO]2 -DFEPIPL-TFA salt] (H-[dF]P[X1][Ava][Ava]DFEPIPL-OH) | – | 0.1 | – | 1.3 |
